Consider two compounds from US12714712B2, “Combination therapy with a mutant IDH inhibitor and a Bcl-2 inhibitor” (Eli Lilly and Company, priority 2020, dated 2026).

Values joined by “and” are separate entries in the source; they are usually repeats but may differ in a detail not shown here. Equal values may be shown once.

The target of data set [1] is T1, mutant IDH1 (IDH1 R132H) in MOLM14 R132 cell line construct (Homo sapiens, UniProt O75874, R132H).
T1 construct: FLAG; host or cells: MOLM14 human leukemia cells (lentiviral, doxycycline-induced)
T1 sequence (O75874 whole entry R132H): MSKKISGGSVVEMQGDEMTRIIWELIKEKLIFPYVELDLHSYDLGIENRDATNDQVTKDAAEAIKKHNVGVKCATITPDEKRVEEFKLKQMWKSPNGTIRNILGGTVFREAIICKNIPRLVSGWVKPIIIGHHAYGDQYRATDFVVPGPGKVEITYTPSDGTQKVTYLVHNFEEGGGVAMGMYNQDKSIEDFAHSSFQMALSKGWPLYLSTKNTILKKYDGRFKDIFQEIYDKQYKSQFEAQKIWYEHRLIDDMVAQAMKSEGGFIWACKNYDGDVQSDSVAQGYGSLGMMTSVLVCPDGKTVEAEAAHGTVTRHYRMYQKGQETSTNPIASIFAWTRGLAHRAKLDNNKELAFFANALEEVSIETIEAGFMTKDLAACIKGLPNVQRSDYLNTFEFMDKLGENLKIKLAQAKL
The experiment in a line: 2-HG Inhibition Assay (LC-MS of cell culture supernatant). Particulars: for 2-HG: 4 days, MOLM14 R132, doxycycline-induced, culture media. The data set is classed as cell-based. The source says: MOLM14 wild-type human leukemia cells and a MOLM14 R132 construct cell line are generated by lentiviral transfection of MOLM14 cells using IDH1 WT (doxycycline inducible) pSLIK-IDH1-FLAG (Addgene Plasmid #66802) and IDH1 R132H (doxycycline inducible) pSLIK-IDH1-R132H-FLAG (Addgene Plasmid #66803), and is kindly provided by Dr. Jean-Emmanuel Sarry (Centre de Recherches en Cancérologie de Toulouse, UMR1037, Inserm, Université de Toulouse 3 Paul Sabatier, Toulouse, France; bioRxiv 749580; doi.org/10.1101/749580). MOLM14-WT and MOLM14-R132 mutant cells are seeded in 6 well plates (lx 10^6/well) in 5 ml of complete RPMI medium containing 10% FBS (Sigma) and 1× Pen/Strep (Sigma). After induction with 2 μg/ml doxycycline, the cells are incubated in 37 degree for 4 days.
Cells are seeded in 12 wells plates (100,000 cells/well) in 1 mL, in triplicate. Cells are treated with 2 μg/ml doxycycline to induce IDH1 expression, then treated with DMSO, 0.1 or 1 μM Compound A, and incubated at 37 degrees C. for 4 days.
65 μL of media are collected and centrifuged, and 60 μL of the supernatant media are collected and frozen at −80 degrees C.
LCMS 2-HG Metabolite Analysis.
The effects of IDH1 inhibition on the concentrations of total 2-HG and (α-KG) are determined by liquid chromatography-mass spectrometry (LC-MS) analysis of cell culture supernatant. Calibration curves are prepared by spiking 2-HG and α-KG into cell culture media. The method utilizes derivatization with O-benzylhydroxylamine prior to analysis by LC-MS. Ten microliters of each standard or sample is placed into a deep-well 96-well plate and combined with 100 μL of internal standard solution containing 10 μM d5-2-hydroxyglutarate and 10 μM d6-α-KG. 50 μL of 1 M O-benzylhydroxylamine in pyridine buffer (8.6% pyridine, pH 5) and 50 μL of 1 M N-(3-dimethylaminopropyl)-N-ethylcarbodiimide hydrochloride (EDC) in pyridine buffer is added to each sample. The derivatization reaction proceeds at room temperature for one hour. […] Analyte concentrations for the unknowns are back-calculated from the calibration curves.

The test system of data set [2] is MOLM14 wild-type and MOLM14 R132 cells. The experiment in a line: Cell Viability Assay (Annexin V/DAPI flow cytometry: % viable cells and % apoptosis). Type of data set: cell-based, human. On the procedure: MOLM14 wild-type and MOLM14 R132 cells are treated with 2 μg/ml doxycycline to induce expression of IDH1 WT and IDH1-R132H and then incubated at 37 degrees C. for 4 days. Cells are seeded in 4 (12 wells) plates at 10,000 cells/well in 1 mL growth media containing 2 ug/mL doxycycline.
Cells are treated with: DMSO (in triplicate), or with Compound A at 0, 125, 250, 500, 1000 nM (each in triplicate) as described in the following: After the initial induction described above, 0.5 mL media with 1× of doxycycline plus 1× Compound A or DMSO is added and incubated for 3 days. After the 3 days, another 0.5 mL aliquot of fresh media with 1×doxycyline plus 1×compound A or DMSO is added and incubated for 3 further days. Venetoclax (0, 25, 50, 100, 200 nM) is then added as a single agent or in combination with 1× Compound A. Two days later, cells are collected in flow cytometry filtered tubes, and processed for flow cytometry. Cells are washed with Annexin V Binding Buffer (ABB, 2 mL) [1 M Hepes buffer (10 mL), 5 M NaCl (28 mL), 1 M CaCl2 (5 mL), H2O (957 mL)], and then centrifuged at 1500 rpm for 5 min. Cells are stained with ABB (50 μL), with APC Annexin V Antibody (1 μL, Biolegend cat #640941), and kept in the dark for 20 minutes. Cells are washed with ABB (2 mL) and centrifuged at 1500 rpm for 5 min. DAPI (Invitrogen cat #D3571) and counting beads (Invitrogen cat #C36950) are added in Annexin V binding buffer [DAPI (5 μL, 2 μg/mL)+counting beads (5 μL (520,000 beads per 50 μL))+ABB (150 μL)] in a total volume 160 μL/tube, then analyzed with a Gallios flow cytometer (Beckman Coulter). Cells collection is stopped when counting beads reach 250 beads per sample. Kalusa software is used for analysis. The percentage of gated Annexin V-negative/DAPI-negative cells constitutes % viable cells, while the percentage of Annexin V-positive cells constitutes % apoptosis.

The subject of data set [3] is AML-PDX. The experiment in a line: AML-PDX Model. Particulars: peripheral blood, following 6 weeks of treatment, individual animals. Type of data set: in vivo, NSG mice. On the procedure: Male NSG mice (6-9 weeks of age, The Jackson Laboratory) are irradiated with 250 cGy and on the next day, injected intravenously with AML-PDX (1×10^6 cells/100 μL). Peripheral blood is collected via the retro-orbital route and processed to measure hCD45+ cells by flow cytometry to confirm the establishment of leukemia. When leukemia engraftment reaches more than 1%, mice are randomly grouped for treatment with vehicle, Compound A (10 mg/kg, daily oral gavage), venetoclax (50 mg/kg, oral gavage for 2 weeks on and 1 week off (2 cycles)) or the combination of venetoclax (50 mg/kg, oral gavage for 2 weeks on and 1 week off (2 cycles)) and Compound A (10 mg/kg, daily oral gavage). Additional dosing may be employed beyond the 2 cycles stated above based on the assessment of the level of residual disease remaining following 6 weeks of treatment. Peripheral blood is collected once every two weeks via the retro-orbital route and processed to measure leukemia burden (% hCD33+/hCD45+ cells) by flow cytometry, and to measure differentiation (% hCD14+ cells percentage out of total hCD45+ cells)). Sixty-five μL stain/wash buffer (5% heat inactivated (HI)-FBS in DPBS) is added per tube, mixed up and down 3 to 4 times by pipette, and 100 μL of the blood suspension is transferred to 5 mL polypropylene tubes. The stains are added according to the manufacturer's instructions (anti-human CD33-APC (BD Biosciences cat #551378), anti-human CD14-PE-Cy7 (BD Biosciences cat #557742), anti-human CD45-APC-Cy7 (BD Biosciences cat #557833). The samples are incubated for 30 minutes at room temperature, protected from light. After the incubation, 1.5 mL 1× BD Lyse/Fix buffer (37° C., (BD #558049)) is added to each sample and incubated for 12 minutes at room temperature. The tubes are then centrifuged at 1500 RPMI for 5 minutes. BD Lyse/Fix solution is aspirated and the cell pellet washed with stain/wash buffer 2 times. Fixed cells are then resuspended in 200 μL stain/wash buffer then transferred to filtered flow tubes. Samples are analyzed on a Gallios Flow cytometer (Beckman, Texas) using standard flow cytometry principles and technique. Population gating and data analysis of percent population are performed in the Flow Jo software.

The test system of data set [4] is mutant IDH1. To be noted: from WO 2018/111707 A1; cited from earlier work.
[5] abbreviates: Compound A 10 mg/kg daily oral gavage, 10 mg/kg.
The mark [6] stands for this setting: venetoclax 50 mg/kg oral gavage, 2 weeks on and 1 week off (2 cycles).

By viability is commonly meant a per cent measure of how many cells are alive, often set against a control. Regarding `C=CC(=O)N1CCN([C@@H](CC2CC2)c2ccc([C@H](C)Nc3ncc4c(n3)N(CC)C(=O)OC4)cc2)CC1` [Compound A, 7-[[(1S)-1-[4-[(1S)-2-cyclopropyl-1-(4-prop-2-enoylpiperazin-1-yl)ethyl]phenyl]ethyl]amino]-1-ethyl-4H-pyrimido[4,5-d][1,3]oxazin-2-one], the 2-HG is 3.369 µM and 3.044 µM and 3.488 µM in data set [1] (0.1 μM Compound A); 3.578 µM and 3.199 µM and 3.378 µM in data set [1] (1 μM Compound A). Also, the “2-HG production by mutant IDH1 (in words)” value in data set [1] (MOLM14 R132 cell line construct) is on record as “inhibits 2-HG production”. Besides, the “% Annexin V + as a measure of apoptosis” value in data set [2] (Compound A 125 nM alone) was 5.56% and 4.3% and 5.12%; in data set [2] (Compound A 250 nM alone) it was 6.18% and 4.95% and 4.92%; in data set [2] (Compound A 500 nM alone), 5.82% and 5.23% and 5.19%; in data set [2] (Compound A 1000 nM alone) it was 7.2% and 5.51% and 7.52%. For the same compound, the “% Cell Viability” value in data set [2] (Compound A 125 nM alone) was 95.14% and 94.27%; in data set [2] (Compound A 250 nM alone), 94.27% and 94.41%; in data set [2] (Compound A 500 nM alone), 93.92% and 94.15%; in data set [2] (Compound A 1000 nM alone) it was 93.98% and 91.68%. For the same compound, the viability at 0.125 µM in data set [2] (Homo sapiens, MOLM-14, Compound A 125 nM alone) was 93.7%. The viability at 0.25 µM in data set [2] (Homo sapiens, MOLM-14, Compound A 250 nM alone) amounted to 93.3%. Besides, the viability at 0.5 µM in data set [2] (Homo sapiens, MOLM-14, Compound A 500 nM alone) worked out at 93.7%. Moreover, the viability at 1 µM in data set [2] (Homo sapiens, MOLM-14, Compound A 1000 nM alone) worked out at 92%. Also, in data set [3] (setting [5]), the “AML cell differentiation (% hCD14+ of hCD45+)” value is 44.1% and 58.3% and 63.6% and 64.1% and 51.7% and 58.9%. In data set [3] (setting [5]), the “Leukemic burden (% hCD33+hCD45+ of total white cells)” value is 87.8% and 88.5% and 51.5% and 65.6% and 85.1% and 81.9%. Also, the “2-HG production (in words)” value in data set [4] is “selectively inhibits 2-HG production”. The “α-KG levels (in words)” value in data set [4] is on record as “without affecting α—KG levels”.
As for `CC1(C)CCC(CN2CCN(c3ccc(C(=O)NS(=O)(=O)c4ccc(NCC5CCOCC5)c([N+](=O)[O-])c4)c(Oc4cnc5[nH]ccc5c4)c3)CC2)=C(c2ccc(Cl)cc2)C1` [Venetoclax, venetoclax, reference compound], the viability at 0.025 µM in data set [2] (Homo sapiens, MOLM-14, 48 h, venetoclax 25 nM alone, 2 days) is 76.1%. Also, in data set [2] (Homo sapiens, MOLM-14, 48 h, venetoclax 50 nM alone, 2 days), the viability at 0.05 µM turned out to be 76.9%. The viability at 0.1 µM in data set [2] (Homo sapiens, MOLM-14, 48 h, venetoclax 100 nM alone, 2 days) is 70.4%. Also, in data set [2] (Homo sapiens, MOLM-14, 48 h, venetoclax 200 nM alone, 2 days), the viability at 0.2 µM amounted to 55.2%. The “% Annexin V + as a measure of apoptosis” value in data set [2] (venetoclax 25 nM alone) is 19.1% and 15.93% and 19.16%; in data set [2] (venetoclax 50 nM alone) it was 18.22% and 16.34% and 17.15%; in data set [2] (venetoclax 100 nM alone), 24.62% and 18.98% and 22.98%; in data set [2] (venetoclax 200 nM alone) it was 41.67% and 35.73% and 41.22%. Further, the “% Cell Viability” value in data set [2] (venetoclax 25 nM alone, 2 days) is 81.78% and 77.84%; in data set [2] (venetoclax 50 nM alone, 2 days) it was 80.63% and 78.78%; in data set [2] (venetoclax 100 nM alone, 2 days), 73.78%; in data set [2] (venetoclax 200 nM alone, 2 days), 59.27% and 56.31%. Also, the “AML cell differentiation (% hCD14+ of hCD45+)” value in data set [3] (setting [6]) was 37.7% and 26% and 40.7% and 32.6%. Moreover, the “Leukemic burden (% hCD33+hCD45+ of total white cells)” value in data set [3] (setting [6]) is 10.1% and 63% and 14.1% and 54.9%.
